In ChEMBL document CHEMBL4270663, “6-Benzhydryl-4-amino-quinolin-2-ones as Potent Cannabinoid Type 1 (CB1) Receptor Inverse Agonists and Chemical Modifications for Peripheral Selectivity” (J Med Chem, 2018):
Active and inactive are the calls of the source. No cut-off for these calls is given here.

Assays:
Mus musculus [1] = assay: Antiobesity activity in diet induced obese C57BL/6J mouse model assessed as decrease in liver fat content at 3 to 10 mg/kg, po administered as daily dose measured at day 26 post last dose; type: functional, organism-based
[2] = Metabolic stability in mouse liver microsomes assessed as parent compound remaining at 1 uM after 10 mins in presence of NADPH; type: ADME, microsome; details: read-out: Stability
Cytochrome P450 3A4 = Cytochrome P450 3A4 (Homo sapiens, UniProt P08684); assay: Inhibition of CYP3A4 in human liver microsomes using midazolam/testosterone as substrate after 10 to 30 mins by LC/MS analysis; type: ADME
[3] = Drug uptake in brain of diet-induced obese C57BL/6J mouse model at 30 mg/kg administered as daily dose measured at 2 hrs post last dose on day 5; type: ADME, organism-based; details: in vivo
[4] = Tmax in C57BL/6J mouse at 5 mg/kg, iv or 20 mg/kg, po administered via gavage by LC-MS/MS analysis; type: ADME, organism-based; details: in vivo
[5] = Ratio of drug level in brain to plasma of diet-induced obese C57BL/6J mouse model at 3 mg/kg, po administered as daily dose measured at 2 hrs post last dose on day 23; type: ADME, organism-based; details: read-out: BPR
[6] = Drug uptake in plasma of diet-induced obese C57BL/6J mouse model at 30 mg/kg administered as daily dose measured at 2 hrs post last dose on day 5; type: ADME, organism-based
[7] = Ratio of drug level in C57BL/6J mouse brain to plasma at 20 mg/kg, po measured after 4 hrs; type: ADME, organism-based; details: read-out: BPR
[8] = Metabolic stability in rat liver microsomes assessed as parent compound remaining at 1 uM after 10 mins in presence of NADPH; type: ADME, microsome; details: read-out: Stability
[9] = Ratio of drug level in brain to plasma of diet-induced obese C57BL/6J mouse model at 10 mg/kg, po administered as daily dose measured at 2 hrs post last dose on day 23; type: ADME, organism-based; details: read-out: BPR
Mus musculus [10] = assay: Antiobesity activity in diet induced obese C57BL/6J mouse model assessed as decrease in food intake at 30 mg/kg administered as daily dose measured every day for 5 days; type: functional, organism-based
[11] = biological target: Voltage-gated inwardly rectifying potassium channel KCNH2 (Homo sapiens, UniProt Q12809); assay: Inhibition of human ERG
[12] = Drug uptake in brain of diet-induced obese C57BL/6J mouse model at 1 mg/kg, po administered as daily dose measured at 2 hrs post last dose on day 2; type: ADME, organism-based; details: in vivo
[13] = Drug uptake in C57BL/6J mouse plasma at 20 mg/kg, po measured after 4 hrs; type: ADME, organism-based
[14] = Drug uptake in plasma of diet-induced obese C57BL/6J mouse model at 1 mg/kg, po administered as daily dose measured at 2 hrs post last dose on day 1; type: ADME, organism-based
Mus musculus [15] = assay: Antiobesity activity in diet induced obese C57BL/6J mouse model assessed as decrease in body weight at 3 mg/kg, po administered as daily dose measured every day for 5 days and continuing every other day till day 8 and 15; type: functional, organism-based
[16] = Drug uptake in plasma of diet-induced obese C57BL/6J mouse model at 1 mg/kg, po administered as daily dose measured at 2 hrs post last dose on day 22; type: ADME, organism-based
[17] = Ratio of drug level in brain to plasma of diet-induced obese C57BL/6J mouse model at 10 mg/kg, po administered as daily dose measured at 2 hrs post last dose on day 1; type: ADME, organism-based; details: read-out: BPR
Salmonella typhimurium = assay: Mutagenicity in Salmonella typhimurium by Ames test; type: toxicity, organism-based; details: salmonella enterica subsp. enterica serovar typhimurium
[18] = Drug uptake in plasma of MDR1a knockout CF-1 mouse at 20 mg/kg, po measured at 2 hrs post last dose on day 1; type: ADME, organism-based
[19] = Drug uptake in C57BL/6J mouse plasma at 20 mg/kg, po measured after 1 hr; type: ADME, organism-based
[20] = Volume of distribution at steady state in C57BL/6J mouse at 5 mg/kg, iv or 20 mg/kg, po administered via gavage by LC-MS/MS analysis; type: ADME, organism-based; details: in vivo, read-out: Vdss
Mus musculus [21] = assay: Antiobesity activity in diet induced obese C57BL/6J mouse model assessed as decrease in total cholesterol level at 3 to 10 mg/kg, po administered as daily dose measured at day 26 post last dose; type: functional, organism-based
Cytochrome P450 2C9 = Cytochrome P450 2C9 (Homo sapiens, UniProt P11712); assay: Inhibition of CYP2C9 in human liver microsomes using tolbutamide as substrate after 10 to 30 mins by LC/MS analysis; type: ADME
[22] = Drug uptake in brain of diet-induced obese C57BL/6J mouse model at 3 mg/kg, po administered as daily dose measured at 2 hrs post last dose on day 2; type: ADME, organism-based; details: in vivo
[23] = Drug uptake in plasma of diet-induced obese C57BL/6J mouse model at 3 mg/kg, po administered as daily dose measured at 2 hrs post last dose on day 1; type: ADME, organism-based
[24] = Drug uptake in plasma of wild type CF-1 mouse at 20 mg/kg, po measured at 2 hrs post last dose on day 1; type: ADME, organism-based
[25] = Half life in C57BL/6J mouse at 5 mg/kg, iv by LC-MS/MS analysis; type: ADME, organism-based; details: in vivo
Mus musculus [26] = assay: Antiobesity activity in diet induced obese C57BL/6J mouse model assessed as decrease in food intake at 3 to 10 mg/kg, po administered as daily dose measured every day for 5 days and continuing every other day till day 17; type: functional, organism-based
Cytochrome P450 2D6 = Cytochrome P450 2D6 (Homo sapiens, UniProt P10635); assay: Inhibition of CYP2D6 in human liver microsomes using dextromethorphan as substrate after 10 to 30 mins by LC/MS analysis; type: ADME
[27] = Drug uptake in brain of MDR1a knockout CF-1 mouse at 20 mg/kg, po measured at 2 hrs post last dose on day 2; type: ADME, organism-based; details: in vivo

Sequence of Cytochrome P450 2D6 (P10635 whole entry): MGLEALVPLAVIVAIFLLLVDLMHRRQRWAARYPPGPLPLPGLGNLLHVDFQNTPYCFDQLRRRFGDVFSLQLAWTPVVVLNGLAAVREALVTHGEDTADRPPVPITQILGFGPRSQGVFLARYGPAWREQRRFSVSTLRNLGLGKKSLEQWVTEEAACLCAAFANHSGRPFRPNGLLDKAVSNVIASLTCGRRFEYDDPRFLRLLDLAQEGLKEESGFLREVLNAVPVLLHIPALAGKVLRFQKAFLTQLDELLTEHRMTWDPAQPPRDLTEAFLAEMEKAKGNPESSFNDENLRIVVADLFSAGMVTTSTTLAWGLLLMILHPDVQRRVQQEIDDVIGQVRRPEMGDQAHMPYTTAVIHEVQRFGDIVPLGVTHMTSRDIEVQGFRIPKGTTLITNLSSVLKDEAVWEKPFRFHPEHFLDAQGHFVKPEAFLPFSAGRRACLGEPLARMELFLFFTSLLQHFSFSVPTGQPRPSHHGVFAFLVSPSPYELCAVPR
Sequence of Voltage-gated inwardly rectifying potassium channel KCNH2 (Q12809 whole entry): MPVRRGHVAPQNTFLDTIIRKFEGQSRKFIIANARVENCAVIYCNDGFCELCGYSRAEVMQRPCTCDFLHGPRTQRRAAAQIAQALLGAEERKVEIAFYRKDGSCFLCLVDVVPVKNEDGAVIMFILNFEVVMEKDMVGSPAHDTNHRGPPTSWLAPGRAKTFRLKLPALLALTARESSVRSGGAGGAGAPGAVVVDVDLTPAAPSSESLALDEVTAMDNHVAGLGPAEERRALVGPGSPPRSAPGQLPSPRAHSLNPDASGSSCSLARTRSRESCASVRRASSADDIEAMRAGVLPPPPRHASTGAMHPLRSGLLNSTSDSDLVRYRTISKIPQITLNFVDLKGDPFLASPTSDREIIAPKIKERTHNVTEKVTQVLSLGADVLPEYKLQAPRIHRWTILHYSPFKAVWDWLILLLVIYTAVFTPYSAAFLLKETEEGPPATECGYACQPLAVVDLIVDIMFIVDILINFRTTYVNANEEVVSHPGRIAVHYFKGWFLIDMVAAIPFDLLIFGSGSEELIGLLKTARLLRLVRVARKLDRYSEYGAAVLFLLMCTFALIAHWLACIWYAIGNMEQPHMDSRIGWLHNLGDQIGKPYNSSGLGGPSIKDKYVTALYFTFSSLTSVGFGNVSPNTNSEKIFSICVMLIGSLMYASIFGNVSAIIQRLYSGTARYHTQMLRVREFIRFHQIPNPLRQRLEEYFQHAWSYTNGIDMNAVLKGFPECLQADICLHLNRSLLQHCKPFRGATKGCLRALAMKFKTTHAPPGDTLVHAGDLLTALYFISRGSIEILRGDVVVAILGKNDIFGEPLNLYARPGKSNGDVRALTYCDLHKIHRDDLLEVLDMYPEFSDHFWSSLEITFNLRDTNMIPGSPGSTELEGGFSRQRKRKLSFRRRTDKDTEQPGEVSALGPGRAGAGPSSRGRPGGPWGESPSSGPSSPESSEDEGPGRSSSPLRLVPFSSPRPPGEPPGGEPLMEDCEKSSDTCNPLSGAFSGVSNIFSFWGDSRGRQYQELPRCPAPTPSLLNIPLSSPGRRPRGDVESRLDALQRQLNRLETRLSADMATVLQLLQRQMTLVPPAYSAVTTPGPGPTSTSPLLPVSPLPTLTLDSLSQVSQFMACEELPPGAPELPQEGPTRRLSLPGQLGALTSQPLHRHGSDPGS
Sequence of Cytochrome P450 3A4 (P08684 whole entry): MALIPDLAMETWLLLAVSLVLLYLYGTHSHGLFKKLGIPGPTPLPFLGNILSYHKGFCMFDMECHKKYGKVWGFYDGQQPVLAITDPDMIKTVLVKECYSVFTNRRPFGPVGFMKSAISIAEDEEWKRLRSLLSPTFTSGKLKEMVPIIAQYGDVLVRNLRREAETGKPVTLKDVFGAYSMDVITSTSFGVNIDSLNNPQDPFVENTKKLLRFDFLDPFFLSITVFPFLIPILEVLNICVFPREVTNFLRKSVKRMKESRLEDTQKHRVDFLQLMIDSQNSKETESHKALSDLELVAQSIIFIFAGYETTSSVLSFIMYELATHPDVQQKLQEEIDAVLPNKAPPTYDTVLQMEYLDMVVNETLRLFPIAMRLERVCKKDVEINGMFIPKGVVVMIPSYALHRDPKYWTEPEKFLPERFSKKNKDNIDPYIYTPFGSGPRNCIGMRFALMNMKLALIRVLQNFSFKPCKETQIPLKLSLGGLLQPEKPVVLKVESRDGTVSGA
Sequence of Cytochrome P450 2C9 (P11712 whole entry): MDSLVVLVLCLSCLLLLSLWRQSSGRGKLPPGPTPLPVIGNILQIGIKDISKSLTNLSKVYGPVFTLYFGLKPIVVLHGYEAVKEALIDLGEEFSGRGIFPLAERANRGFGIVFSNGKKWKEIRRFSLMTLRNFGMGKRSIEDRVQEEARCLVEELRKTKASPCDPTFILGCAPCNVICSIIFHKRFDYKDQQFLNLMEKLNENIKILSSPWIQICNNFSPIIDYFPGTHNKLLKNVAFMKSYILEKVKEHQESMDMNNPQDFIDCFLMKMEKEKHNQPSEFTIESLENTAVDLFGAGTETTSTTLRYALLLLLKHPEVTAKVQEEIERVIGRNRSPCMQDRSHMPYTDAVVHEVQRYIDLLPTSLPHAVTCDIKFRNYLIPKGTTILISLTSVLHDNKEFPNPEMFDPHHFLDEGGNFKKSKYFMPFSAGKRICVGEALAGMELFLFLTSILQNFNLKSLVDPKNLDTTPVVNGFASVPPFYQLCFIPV

**Q.** For O=c1cc(NC2CCN(S(=O)(=O)C(F)(F)F)CC2)c2cc(C(c3ccc(Cl)cc3)c3ccc(Cl)cc3)ccc2[nH]1, which Activity (Mus musculus [1]) is on record?
**A.** Active

**Q.** What about the remaining at 10 min, 1 µM [2] of the same molecule?
**A.** 100%

**Q.** And the IC50 (Cytochrome P450 3A4)?
**A.** > 10 µM

**Q.** What about the Drug uptake [3] of the same molecule?
**A.** 0.357 nmol/g

**Q.** What about the Tmax [4] of the same molecule?
**A.** 2 h

**Q.** What about the Kp at 2 h [5] of the same molecule?
**A.** 0.065

**Q.** What about the concentration at 2 h [6] of the same molecule?
**A.** 18500 nM

**Q.** And the Kp at 4 h [7]?
**A.** 0.0099

**Q.** What about the remaining at 10 min, 1 µM [8] of the same molecule?
**A.** 100%

**Q.** What about the Kp at 2 h [9] of the same molecule?
**A.** 0.038

**Q.** What about the Activity (Mus musculus [10]) of the same molecule?
**A.** Active

**Q.** What about the IC50 [11] of the same molecule?
**A.** > 50 µM

**Q.** And the Drug uptake [12]?
**A.** < 4 nmol/g

**Q.** And the concentration at 4 h [13]?
**A.** 1940 nM

**Q.** What about the concentration at 2 h [14] of the same molecule?
**A.** 508 nM

**Q.** And the Activity (Mus musculus [15])?
**A.** Active

**Q.** And the concentration at 2 h [16]?
**A.** 843 nM

**Q.** What about the Kp at 2 h [17] of the same molecule?
**A.** 0.026

**Q.** What about the Activity (Salmonella typhimurium) of the same molecule?
**A.** Non-Toxic

**Q.** What about the concentration at 2 h [18] of the same molecule?
**A.** 4950 nM

**Q.** What about the concentration at 1 h [19] of the same molecule?
**A.** 1720 nM

**Q.** What about the Vd [20] of the same molecule?
**A.** 0.456 L/kg

**Q.** What about the Activity (Mus musculus [21]) of the same molecule?
**A.** Active

**Q.** And the IC50 (Cytochrome P450 2C9)?
**A.** > 10 µM

**Q.** What about the Drug uptake [22] of the same molecule?
**A.** < 4 nmol/g

**Q.** What about the concentration at 2 h [23] of the same molecule?
**A.** 1240 nM

**Q.** And the concentration at 2 h [24]?
**A.** 3920 nM

**Q.** And the half-life [25]?
**A.** 6.97 h

**Q.** What about the Activity (Mus musculus [26]) of the same molecule?
**A.** Active

**Q.** What about the IC50 (Cytochrome P450 2D6) of the same molecule?
**A.** > 10 µM

**Q.** And the Drug uptake [27]?
**A.** 3.49 nmol/g
